For 10 compounds, IC50 results are on record in patent US10336723B2, “Inhibitors of TrkA kinase” (GVK BIOSCIENCES PRIVATE LIMITED, priority 2015, dated 2019).

The term IC50 denotes the concentration that inhibits the measured activity by half.

The structures appear in SMILES notation.

T1 sequence (P04629 33-796): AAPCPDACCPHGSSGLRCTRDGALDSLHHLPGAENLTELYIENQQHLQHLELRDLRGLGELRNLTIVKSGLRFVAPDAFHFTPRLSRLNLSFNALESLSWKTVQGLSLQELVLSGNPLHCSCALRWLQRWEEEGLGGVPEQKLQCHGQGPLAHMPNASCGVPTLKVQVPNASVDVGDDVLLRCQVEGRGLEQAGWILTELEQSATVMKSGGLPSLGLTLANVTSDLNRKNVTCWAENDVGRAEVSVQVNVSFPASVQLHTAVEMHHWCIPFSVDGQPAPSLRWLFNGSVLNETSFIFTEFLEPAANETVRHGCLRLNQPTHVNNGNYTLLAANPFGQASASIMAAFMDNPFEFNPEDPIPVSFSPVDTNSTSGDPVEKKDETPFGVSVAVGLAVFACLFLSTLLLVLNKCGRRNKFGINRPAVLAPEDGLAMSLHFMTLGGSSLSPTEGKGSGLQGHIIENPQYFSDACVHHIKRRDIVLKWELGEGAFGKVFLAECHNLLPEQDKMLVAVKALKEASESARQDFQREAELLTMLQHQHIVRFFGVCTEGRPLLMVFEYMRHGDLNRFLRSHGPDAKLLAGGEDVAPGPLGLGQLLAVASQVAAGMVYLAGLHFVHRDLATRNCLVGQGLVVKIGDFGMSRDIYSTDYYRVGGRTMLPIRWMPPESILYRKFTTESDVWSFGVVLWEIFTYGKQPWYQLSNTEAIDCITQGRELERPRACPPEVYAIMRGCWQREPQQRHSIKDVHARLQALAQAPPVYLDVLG

This experiment concerns the target T1, human TrkA (Homo sapiens, UniProt P04629).
T1 construct: expressed in transfected cells; host or cells: AD293 cells
The experiment is described as follows: TrkA Cell Based Phosphorylation Assay. To be noted: Recombinant AD293 cells overexpressing human TrkA; TrkA Y490 phosphorylation upon 6 nM NGF stimulation; Phospho-TrkA (Tyr490) sandwich ELISA. The protocol:
Recombinant AD293 cells overexpressing human TrkA were used to determine TrkA Y490 phosphorylation upon NGF stimulation. 25 k cells plated in serum free DMEM medium in a 96 well plate were serum starved for 2 hours at 37° C. in 5% CO2 incubator. Test compounds were added to the plate at a final concentration of 2.5% DMSO and incubated for 20 min at 37° C. 6 nM NGF was added and incubated for 5 min at 37° C. The plate was immediately centrifuged at 2000 rpm for 1 min and media removed. Lysis buffer containing 1% NP-40 Substitute, 20 mM Tris (pH 8.0), 137 mM NaCl final concentrations was added, mixed for one minute and kept on ice for 15 min with shaking every 5 minutes. 100 ul of the cell lysate was added to the PathScan® Phospho-TrkA (Tyr490) Sandwich ELISA plate with precoated wells and ELISA performed according to the manufacturer's instructions for color development. IC50 was generated in Graph Pad Prism software in non linear regression format.
A general note: ELISA stands for enzyme-linked immunosorbent assay.
For the compound `COCCN1C[C@@H](NC(=O)Nc2cc3ccccc3nc2-c2ccccc2)[C@H](c2ccccc2)C1` [Example 2, 1-((3S,4R)-1-(2-methoxyethyl)-4-phenylpyrrolidin-3-yl)-3-(2-phenylquinolin-3-yl)urea], the IC50 was less than 100 nM.

Turning to `COCCN1C[C@@H](NC(=O)Nc2cc3c(nc2-c2ccccc2)CCCC3)[C@H](c2ccccc2)C1` [Example 125, 1-((3S,4R)-1-(2-Methoxyethyl)-4-phenylpyrrolidin-3-yl)-3-(2-phenyl-5,6,7,8-tetrahydroquinolin-3-yl)urea], the 50% inhibitory concentration (IC50) was less than 100 nM.

For the compound `COCCN1C[C@@H](NC(=O)Nc2cc3c(OC)cccc3nc2-c2ccccc2)[C@H](c2ccccc2)C1` [Example 16, 1-(5-Methoxy-2-phenylquinolin-3-yl)-3-((3S,4R)-1-(2-methoxyethyl)-4-phenylpyrrolidin-3-yl)urea], the half-maximal inhibitory concentration (IC50) lay within 100 to 1000 nM.

Consider `COCCN1C[C@@H](NC(=O)Nc2c(-c3ccccc3)ncc3ccccc23)[C@H](c2ccccc2)C1` [Example 149, 1-((3S,4R)-1-(2-Methoxyethyl)-4-phenylpyrrolidin-3-yl)-3-(3-phenylisoquinolin-4-yl)urea], for which the concentration for half-maximal inhibition (IC50) was less than 100 nM.

Take `COCCN1C[C@@H](NC(=O)Nc2cc3ccccc3nc2-c2ccncc2)[C@H](c2ccccc2)C1` [Example 33, 1-((3S,4R)-1-(2-Methoxyethyl)-4-phenylpyrrolidin-3-yl)-3-(2-(pyridin-4-yl)quinolin-3-yl)urea]: the half-inhibitory concentration (IC50) is more than 1000 nM.

Turning to `COCCN1C[C@@H](NC(=O)Nc2c(-c3ccccc3)nc(C(=O)O)c3cc(F)ccc23)[C@H](c2ccccc2)C1` [Example 190, 7-Fluoro-4-(3-(1-(2-methoxyethyl)-4-phenylpyrrolidin-3-yl)ureido)-3-phenylisoquinoline-1-carboxylic acid], the IC50 was 100 to 1000 nM.

For `COCCN1C[C@@H](NC(=O)Nc2cccc3oc4ccccc4c23)[C@H](c2ccccc2)C1` [Example 104, 1-(Dibenzo[b,d]furan-1-yl)-3-((3S,4R)-1-(2-methoxyethyl)-4-phenylpyrrolidin-3-yl)urea], the IC50 is 100 to 1000 nM.

On to `COCCN1C[C@@H](NC(=O)Nc2c(C(C)(C)C)nc(-c3cnn(C)c3)c3ccccc23)[C@H](c2ccccc2)C1` [Example 165, 1-(3-(tert-Butyl)-1-(1-methyl-1H-pyrazol-4-yl)isoquinolin-4-yl)-3-((3S,4R)-1-(2-methoxyethyl)-4-phenylpyrrolidin-3-yl)urea], for which the concentration for half-maximal inhibition (IC50) was 100 to 1000 nM.

As for `COCCN1C[C@@H](NC(=O)Nc2cc3cc(OC)c(OC)cc3nc2-c2ccccc2)[C@H](c2cccc(F)c2)C1` [Example 74, 1-(6,7-Dimethoxy-2-phenylquinolin-3-yl)-3-((3S,4R)-4-(3-fluorophenyl)-1-(2-methoxyethyl)pyrrolidin-3-yl)urea], the IC50 was less than 100 nM.

For the compound `COCCN1C[C@@H](NC(=O)Nc2c(-c3ccccc3)nc(N3CCOCC3)c3ccccc23)[C@H](c2ccccc2)C1` [Example 172, 1-((3S,4R)-1-(2-Methoxyethyl)-4-phenylpyrrolidin-3-yl)-3-(1-morpholino-3-phenylisoquinolin-4-yl)urea], the 50% inhibitory concentration (IC50) is less than 100 nM.
